Read-outs that look alike come from different tables or passages of the source.
Target: 5-HT2A (Homo sapiens (Human), UniProt P28223)
Assay: Radioligand binding assay, [^3H]5-HT competition, 5-HT2A
Settings: read-out: 5-HT2A serotonin binding Ki value
[1] = [^3H]5-HT radioligand, membranes of HEK293 cells expressing recombinant 5-HT2A, Ki from IC50 by Cheng-Prusoff

Chain of 5-HT2A (P28223 whole entry): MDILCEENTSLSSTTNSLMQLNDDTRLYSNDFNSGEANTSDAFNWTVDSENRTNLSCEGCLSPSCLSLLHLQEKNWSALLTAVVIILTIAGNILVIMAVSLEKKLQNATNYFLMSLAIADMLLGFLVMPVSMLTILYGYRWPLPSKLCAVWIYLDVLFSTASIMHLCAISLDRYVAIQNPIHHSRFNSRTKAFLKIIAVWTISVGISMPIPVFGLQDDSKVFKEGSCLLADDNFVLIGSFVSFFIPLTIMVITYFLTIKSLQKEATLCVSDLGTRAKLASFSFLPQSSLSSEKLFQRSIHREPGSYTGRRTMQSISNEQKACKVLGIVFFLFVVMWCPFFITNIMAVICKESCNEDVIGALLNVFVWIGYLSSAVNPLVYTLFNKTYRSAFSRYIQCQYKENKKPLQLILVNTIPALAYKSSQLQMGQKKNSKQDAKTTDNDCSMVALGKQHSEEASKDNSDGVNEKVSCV

Cc1ncnc(C)c1-c1cc(NC(=O)c2ccncc2F)ccc1OCCN1CCC1 [Compound 332, N-(4-(2-(azetidin-1-yl)ethoxy)-3-(4,6-dimethylpyrimidin-5-yl)phenyl)-3-fluoroisonicotinamide]
Ki [1]: 18.6 nM

Cc1ncnc(C)c1-c1cc(NC(=O)c2ncncc2F)ccc1OCCN1CCC1 [Compound 333, N-(4-(2-(azetidin-1-yl)ethoxy)-3-(4,6-dimethylpyrimidin-5-yl)phenyl)-5-fluoropyrimidine-4-carboxamide]
Ki [1]: 224 nM

CC(=O)N1CCN(CCOc2ccc(NC(=O)C3CC3)cc2-c2c(C)ncnc2C)CC1 [Compound 334, N-[4-[2-(4-acetylpiperazin-1-yl)ethoxy]-3-(4,6-dimethylpyrimidin-5-yl)phenyl]cyclopropanecarboxamide]
Ki [1]: 17.6 nM

Cc1ncnc(C)c1-c1cc(NC(=O)C2CC2)ccc1OCCN1CCC(CC(=O)O)CC1 [Compound 335, 2-[1-[2-[4-(cyclopropanecarbonylamino)-2-(4,6-dimethylpyrimidin-5-yl)phenoxy]ethyl]-4-piperidyl]acetic acid]
Ki [1]: 196 nM

Cc1ncnc(C)c1-c1cc(NC(=O)C2CC2)ccc1OCCN1C[C@@H]2C[C@H]1CO2 [Compound 336, N-[3-(4,6-dimethylpyrimidin-5-yl)-4-[2-[(1S,4S)-2-oxa-5-azabicyclo[2.2.1]heptan-5-yl]ethoxy]phenyl]cyclopropanecarboxamide]
Ki [1]: 6.42 nM

Cc1ncnc(C)c1-c1cc(NC(=O)C2CC2)ccc1OCCN1[C@@H]2COC[C@H]1C2 [Compound 337, N-[3-(4,6-dimethylpyrimidin-5-yl)-4-[2-[(1S,5R)-3-oxa-6-azabicyclo[3.1.1]heptan-6-yl]ethoxy]phenyl]cyclopropanecarboxamide]
Ki [1]: 7.29 nM

Cc1ncnc(C)c1-c1cc(NC(=O)C2CC2)ccc1OCCN1CCC(CC(=O)O)C1 (stereo not shown) [Compound 338, 2-[1-[2-[4-(cyclopropanecarbonylamino)-2-(4,6-dimethylpyrimidin-5-yl)phenoxy]ethyl]pyrrolidin-3-yl]acetic acid]
Ki: 485 nM

Cc1ncnc(C)c1-c1cc(NC(=O)C2CC2)ccc1OCCN1CCN(C(=O)CO)CC1 [Compound 339, N-[3-(4,6-dimethylpyrimidin-5-yl)-4-[2-[4-(2-hydroxyacetyl)piperazin-1-yl]ethoxy]phenyl]cyclopropanecarboxamide]
Ki [1]: 18.4 nM

Cc1ncnc(C)c1-c1cc(NC(=O)C2CC2)ccc1OCCN1CCN(C(=O)C(=O)O)CC1 [Compound 340, 2-[4-[2-[4-(cyclopropanecarbonylamino)-2-(4,6-dimethylpyrimidin-5-yl)phenoxy]ethyl]piperazin-1-yl]-2-oxo-acetic acid]
Ki [1]: 374 nM

Cc1ncnc(C)c1-c1cc(NC(=O)C2CC2)ccc1OCCN1CCN(C=O)CC1 [Compound 341, N-[3-(4,6-dimethylpyrimidin-5-yl)-4-[2-(4-formylpiperazin-1-yl)ethoxy]phenyl]cyclopropanecarboxamide]
Ki [1]: 9.84 nM

Cc1ncnc(C)c1-c1cc(NC(=O)C2CC2)ccc1OCCN1CCN(S(C)(=O)=O)CC1 [Compound 342, N-[3-(4,6-dimethylpyrimidin-5-yl)-4-[2-(4-methylsulfonylpiperazin-1yl)ethoxy]phenyl]cyclopropanecarboxamide]
Ki [1]: 6.95 nM

Cc1ncnc(C)c1-c1cc(NC(=O)C2CC2)ccc1OCCN1CCN2C(=O)OCC2C1 (stereo not shown) [Compound 343, N-[3-(4,6-dimethylpyrimidin-5-yl)-4-[2-(3-oxo-5,6,8,8a-tetrahydro-1H-oxazolo[3,4-a]pyrazin-7-yl)ethoxy]phenyl]cyclopropanecarboxamide]
Ki [1]: 48.4 nM

Cc1ncnc(C)c1-c1cc(NC(=O)C2CC2)ccc1OCCN1CC2(COC2)C1 [Compound 345, N-(4-(2-(2-oxa-6-azaspiro[3.3]heptan-6-yl)ethoxy)-3-(4,6-dimethylpyrimidin-5-yl)phenyl)cyclopropanecarboxamide]
Ki [1]: 19.5 nM
